How the values were obtained:
[1] = test system: Rattus norvegicus; assay: Toxicity is evaluated according to a five-level scale ranging from 0 to 5+ at the specified oral dose of 39.8 (umol/kg/day); assay type: organism-based; settings: in vivo
[2] = test system: Pneumocystis carinii; assay: The compound was tested in vivo against Pneumocystis carinii pneumonia (PCP) in the immunosuppressed rat model at oral dose of 39.8(umol/kg/day); assay type: functional
[3] = test system: Rattus norvegicus; assay: Toxicity is evaluated according to a five-level scale ranging from 0 to 5+ at the specified iv dose of 13.3 (umol/kg/day); assay type: organism-based; settings: in vivo
[4] = test system: Pneumocystis carinii; assay: The compound was tested in vivo against Pneumocystis carinii pneumonia (PCP) in the immunosuppressed rat model at iv dose of 13.3 (umol/kg/day); assay type: functional
[5] = test system: Pneumocystis carinii; assay: The compound was tested in vivo against Pneumocystis carinii pneumonia (PCP) in the immunosuppressed rat model at oral dose of 33.0(umol/kg/day); assay type: functional
[6] = test system: Rattus norvegicus; assay: Toxicity is evaluated according to a five-level scale ranging from 0 to 5+ at the specified iv dose of 22.0 (umol/kg/day); assay type: organism-based; settings: in vivo
[7] = test system: Rattus norvegicus; assay: Toxicity is evaluated according to a five-level scale ranging from 0 to 5+ at the specified oral dose of 33.0 (umol/kg/day); assay type: organism-based; settings: in vivo
[8] = test system: Pneumocystis carinii; assay: The compound was tested in vivo against Pneumocystis carinii pneumonia (PCP) in the immunosuppressed rat model at iv dose of 22.0 (umol/kg/day); assay type: functional
[9] = test system: Pneumocystis carinii; assay: The compound was tested in vivo against Pneumocystis carinii pneumonia (PCP) in the immunosuppressed rat model at iv dose of 34.7 (umol/kg/day); assay type: functional
[10] = test system: Rattus norvegicus; assay: Toxicity is evaluated according to a five-level scale ranging from 0 to 5+ at the specified iv dose of 34.7 (umol/kg/day); assay type: organism-based; settings: in vivo
[11] = test system: Pneumocystis carinii; assay: The compound was tested in vivo against Pneumocystis carinii pneumonia (PCP) in the immunosuppressed rat model at iv dose of 11.3(umol/kg/day); assay type: functional
[12] = test system: Rattus norvegicus; assay: Toxicity is evaluated according to a five-level scale ranging from 0 to 5+ at the specified iv dose of 11.0 (umol/kg/day); assay type: organism-based; settings: in vivo
[13] = test system: Pneumocystis carinii; assay: The compound was tested in vivo against Pneumocystis carinii pneumonia (PCP) in the immunosuppressed rat model at iv dose of 11.0 (umol/kg/day); assay type: functional

Compound N=C(N)c1ccc(-c2ccc(-c3ccc(C(=N)N)cc3)o2)cc1 [FURAMIDINE] has a Toxicity [1] of 0, a Control [2] of 44.52% and a Toxicity [3] of 0. The Control [4] was 0.83%.
With CCSC(=O)NC(=N)c1ccc(-c2ccc(-c3ccc(C(=N)NC(=O)SCC)cc3)o2)cc1 the Control [5] was 19.52%, the Toxicity [6] was 0 and the Toxicity [7] was 0. The Control [8] was 83.01%.
In the case of CCOC(=O)ONC(=N)c1ccc(-c2ccc(-c3ccc(C(=N)NOC(=O)OCC)cc3)o2)cc1, the Control [9] is reported as 1.66%, the Toxicity [10] is reported as 0 and the Control [5] is reported as 96.9%. The Toxicity [7] was 0.
With N/C(=N\C(=O)OCC(Cl)(Cl)Cl)c1ccc(-c2ccc(-c3ccc(/C(N)=N\C(=O)OCC(Cl)(Cl)Cl)cc3)o2)cc1 the Control [5] was 8.59%, the Toxicity [6] was 0 and the Toxicity [7] was 0. It also gave a Control [8] of 1.85%.
N=C(N)c1ccc(OCCCCCOc2ccc(C(=N)N)cc2)cc1 [PENTAMIDINE] showed a Control [8] of 3.06%.
Compound Cc1oc(=O)oc1COC(=O)NC(=N)c1ccc(-c2ccc(-c3ccc(C(=N)NC(=O)OCc4oc(=O)oc4C)cc3)o2)cc1 has a Control [5] of 18.73%, a Toxicity [6] of 0 and a Toxicity [7] of 0. For the same compound, the Control [8] was 0.02%.
In the case of COc1ccc(OC(=O)NC(=N)c2ccc(-c3ccc(-c4ccc(C(=N)NC(=O)Oc5ccc(OC)cc5)cc4)o3)cc2)cc1, the Control [5] is reported as 2.1%, the Toxicity [6] is reported as 0 and the Toxicity [7] is reported as 0. For the same compound, the Control [8] was 0.02%.
For N=C(NC(=O)Oc1ccc(F)cc1)c1ccc(-c2ccc(-c3ccc(C(=N)NC(=O)Oc4ccc(F)cc4)cc3)o2)cc1, the Control [5] was 2.21%, the Toxicity [6] was 0 and the Toxicity [7] was 0. It also gave a Control [8] of 0.02%.
Compound N=C(NC(=O)Oc1ccccc1)c1ccc(-c2ccc(-c3ccc(C(=N)NC(=O)Oc4ccccc4)cc3)o2)cc1 has a Control [5] of 5.7%, a Toxicity [6] of 0 and a Toxicity [7] of 0. For the same compound, the Control [8] was 3.61%.
N=C(NC(=O)OCc1ccccc1)c1ccc(-c2ccc(-c3ccc(C(=N)NC(=O)OCc4ccccc4)cc3)o2)cc1 showed a Control [11] of 0.03%, a Control [5] of 18.09% and a Toxicity [7] of 0. For the same compound, the Toxicity [12] was 0.
COC(=O)NC(=N)c1ccc(-c2ccc(-c3ccc(C(=N)NC(=O)OC)cc3)o2)cc1 was tested, and the Control [5] was 49.68%, the Toxicity [6] was 0 and the Toxicity [7] was 0. It also gave a Control [8] of 6.91%.
For CC(=O)OC(C)OC(=O)NC(=N)c1ccc(-c2ccc(-c3ccc(C(=N)NC(=O)OC(C)OC(C)=O)cc3)o2)cc1 (centres undefined), the Control [5] was 57.16%, the Control [13] was 1.21% and the Toxicity [7] was 0.

Source: ChEMBL document CHEMBL1132181, “Prodrugs for amidines: synthesis and anti-Pneumocystis carinii activity of carbamates of 2,5-bis(4-amidinophenyl)furan” (J Med Chem, 1999)
